Legend:
Ub(G76V)-GFP, U2OS cells = assay: QIBC of Ub(G76V)-GFP after siRNA; format: cell-based, human; conditions: siRNA 20 nM, QIBC >10,000 cells
Protocol: (§1) U2OS (catalog no. HTB-96) cells were obtained from ATCC. HEK293-EBNA1-6E cells were a kind gift from Yves Durocher (National Research Council Canada, Montreal, Canada). All mammalian cell lines were cultured under standard conditions at 37 °C and 5% CO2 in DMEM (Thermo) supplemented with 10% FBS (v/v) and penicillin-streptomycin (Thermo). Recombination cloning-compatible U2OS cells were generated using the Flp-In T-Rex Core Kit (Thermo) according to the manufacturer’s instructions and maintained under selection using Blasticidin (Invivogen) and Zeocin (Thermo). To generate cell lines stably expressing GFP-VCF1, U2OS Flp-In T-Rex cells (Thermo) were co-transfected with GFP-VCF1 constructs and pOG44 (Thermo) plasmids, followed by selection with Hygromycin (Invitrogen). Single clones were carefully screened for uniform expression of ectopic GFP-VCF1 at low levels and maintained under selection with Blasticidin and Hygromycin. To induce GFP-VCF1 expression, cells were treated with Doxycycline (DOX) (0.5 µg/ml) for 16 h. U2OS cell lines stably expressing Ub(G76V)-GFP or Ub(G76V)-GFP-20AA were described previously. A U2OS cell line stably expressing Ub(G76V)-GFP-NES was generated under G418 (Invivogen) selection. […]
Mammalian cells grown on coverslips were fixed in formalin buffer (VWR) for 15 min at room temperature (RT). […] Quantitative image-based cytometry (QIBC) was performed as described. […]

[1] = system: GFP-VCF1 WT interactome, U2OS cells; assay: GFP IP mass spectrometry of VCF1-interacting proteins, non-denaturing EBC buffer (+DOX/-DOX); format: binding, human
Protocol: (§2) U2OS (catalog no. HTB-96) cells were obtained from ATCC. HEK293-EBNA1-6E cells were a kind gift from Yves Durocher (National Research Council Canada, Montreal, Canada). All mammalian cell lines were cultured under standard conditions at 37 °C and 5% CO2 in DMEM (Thermo) supplemented with 10% FBS (v/v) and penicillin-streptomycin (Thermo). Recombination cloning-compatible U2OS cells were generated using the Flp-In T-Rex Core Kit (Thermo) according to the manufacturer’s instructions and maintained under selection using Blasticidin (Invivogen) and Zeocin (Thermo). To generate cell lines stably expressing GFP-VCF1, U2OS Flp-In T-Rex cells (Thermo) were co-transfected with GFP-VCF1 constructs and pOG44 (Thermo) plasmids, followed by selection with Hygromycin (Invitrogen). Single clones were carefully screened for uniform expression of ectopic GFP-VCF1 at low levels and maintained under selection with Blasticidin and Hygromycin. To induce GFP-VCF1 expression, cells were treated with Doxycycline (DOX) (0.5 µg/ml) for 16 h. U2OS cell lines stably expressing Ub(G76V)-GFP or Ub(G76V)-GFP-20AA were described previously. A U2OS cell line stably expressing Ub(G76V)-GFP-NES was generated under G418 (Invivogen) selection. Clones with low baseline GFP expression were visually screened for low basal GFP expression. All cell lines used in this study were regularly tested negative for mycoplasma infection and were not authenticated.
(§3) Immunoblotting was performed as previously described. Immunoprecipitation (IP) of HA-tagged proteins was performed using Anti-HA Affinity matrix (Roche) under denaturing conditions, unless otherwise stated. GFP-trap and […] Fab-trap agarose (Chromotek) were used according to manufacturer’s instructions. Cell lysis was performed using RIPA buffer (140 mM NaCl; 10 mM Tris-HCl, pH 8.0; 0.1% sodium deoxycholate; 1% Triton X-100; 0.1% SDS; 1 mM EDTA; 0.5 mM EGTA) or EBC buffer (50 mM Tris, pH 7.5; 150 mM NaCl; 1 mM EDTA; 0.5% NP-40, 1 mM DTT). IPs were washed in non-denaturing buffer (50 mM Tris-HCl, pH 7.5; 150 mM NaCl; 0.5 mM EDTA). Cell lysis and IP under partially denaturing conditions were performed using denaturing buffer (20 mM Tris-HCl, pH 7.5; 50 mM NaCl; 0.5% sodium deoxycholate; 0.5% NP-40; 0.5% SDS; 1 mM EDTA). All lysis and wash buffers were supplemented with 1 mM fresh PMSF Protease Inhibitor (Thermo), complete EDTA-free protease inhibitor Cocktail Tablets (Roche), 1.25 mM N-ethylmaleimide (Sigma) and 50 µM PR-619 (Calbiochem).
(§4) GFP-Trap agarose (Chromotek) pulldowns were subjected to partial on-bead digestion for peptide elution, by addition of 100 µl of elution buffer (50 mM Tris, pH 7.5; 2 M urea; 2 mM DTT; 20 µg/ml trypsin) and incubation at 37 °C for 30 min. To carry out alkylation, 25 mM CAA was added to the samples, which were then left to digest overnight at room temperature. Digestion was halted by introducing 1% TFA. Purification and desalting of peptides were done using SDB-RPS StageTips. This process required preparing two layers of SDB-RPS with 100 µl of wash buffer (0.2% TFA in H2O), onto which the peptides were loaded. After centrifugation for 5 min at 500 × g, peptides were washed using 150 µl wash buffer, eluted with 50 µl elution buffer (80% ACN; 1% ammonia) and vacuum-dried.
(§5) Liquid chromatography-mass spectrometry (LC-MS) analysis was conducted using an EASY-nLC-1200 system (Thermo Fisher Scientific), coupled with a timsTOF Pro spectrometer and a nano-electrospray ion source (Bruker Daltonik). […]

[2] = system: GFP-VCF1 WT / N167A interactome, U2OS cells; assay: GFP IP mass spectrometry, comparison of VCF1 WT and N167A interactomes (WT/N167A); format: binding, human; conditions: GFP-VCF1 WT / N167A IPs, partially denaturing RIPA buffer
Protocol: as §2, §3, §4, §5

p97 = assay: GFP IP of GFP-VCF1 alanine mutants from U2OS cells; format: binding, human; conditions: full-length GFP-VCF1, U2OS
Protocol: as §3

[3] = system: p97 (His6-p97 WT and N-domain mutants); assay: Peptide/protein pulldown with purified WT or mutant His6-p97 (VRM, VIM, VBM, p47); format: binding, human; conditions: peptides on StrepTactin agarose (p47: protein), purified WT or mutant His6-p97, RIPA wash
Protocol: All in vitro binding experiments were performed in EBC or RIPA buffer as indicated. Recombinant Biotin-tagged K48-linked poly-ubiquitin chains (2−7) and K48-linked poly-ubiquitin chains (2−16) were purchased from R&D Systems and Enzo Life Science, respectively. Recombinant proteins were incubated with Strep-Tactin Sepharose (IBA), Glutathione agarose (Gold Biotechnology) or […] Fab-trap agarose (ChromoTek) overnight on an end-over-end rotator at 4 °C, washed six times with EBC or RIPA buffer, and resuspended in 2×Laemmli sample buffer. For p97, VCF1 or p47 pulldowns, antibodies (0.5 µg/sample) were coupled to agarose beads, incubated with recombinant proteins or cell lysates and washed with the indicated buffer. To assess p97-UFD1-NPL4 binding to ubiquitylated proteins in total cell extracts, U2OS cells were lysed in EBC buffer supplemented with protease and phosphatase inhibitors, sonicated and incubated on ice for 10 min. Lysates were cleared by centrifugation for 10 min at 16,100 × g. […]
Peptides were coupled to beads for a minimum of 2 h at 4 °C with rotation, blocked in BSA (New England Biolabs) and washed three times for 1 min, before incubation overnight at 4 °C with whole cell lysate or purified proteins. Beads were then washed three times for 1 min and bound material was eluted in 2×Laemmli sample buffer and analyzed by immunoblotting.

[4] = system: GFP-VCF1 WT interactome, U2OS cells; assay: GFP IP mass spectrometry of VCF1-interacting proteins, partially denaturing RIPA buffer (+DOX/-DOX); format: binding, human
Protocol: as §1, with “selection. Clones with low baseline GFP expression were visually screened for low basal GFP expression.” for “selection.”

[5] = system: p97 with poly-ubiquitylated mEos3.2; assay: In vitro p97 unfoldase assay (mEos3.2); format: biochemical, human; conditions: p97 100 nM hexamer, VCF1 300 nM, substrate 35 nM, 37 °C
Protocol: Di-ubiquitin-fused mEos3.2 fluorescent protein (diUb-mEos3.2) and ubiquitylation cascade proteins mUbe1, gpc78-ubc7 fusion and ubiquitin were recombinantly expressed in E. coli and purified as described previously. diUb-mEos3.2 substrate was enzymatically polyubiquitylated as described previously. […] The unfolding activity of p97 was monitored in vitro by measuring the decrease in diUb^n-mEos3.2 fluorescence. For this, diUb^n-mEos3.2 (35 nM), p97 (100 nM hexamer), UFD1-NPL4 (500 nM) and VCF1 (300 nM) were mixed as indicated in Eos assay buffer (50 mM HEPES, pH 7.5; 150 mM KCl; 2 mM MgCl2; 5% glycerol; 1 mM DTT) and pre-warmed to 37 °C for 5 min before ATP (2 mM) was added to start the reaction. Unfolding of red mEos3.2 fluorescence was measured every 15 s in a Varian Cary Eclipse spectrofluorometer (excitation: 500 nm; emission: 520 nm) and normalized to the first value after addition of ATP.

[6] = system: p97-UFD1-NPL4 binding to K48-Ub2-7; assay: FLAG IP: p97-UFD1-NPL4 binding to K48-linked ubiquitin chains, purified proteins; format: biochemical, human; conditions: purified proteins, FLAG IP
Protocol: (§6) All in vitro binding experiments were performed in EBC or RIPA buffer as indicated. Recombinant Biotin-tagged K48-linked poly-ubiquitin chains (2−7) and K48-linked poly-ubiquitin chains (2−16) were purchased from R&D Systems and Enzo Life Science, respectively. Recombinant proteins were incubated with Strep-Tactin Sepharose (IBA), Glutathione agarose (Gold Biotechnology) or […] Fab-trap agarose (ChromoTek) overnight on an end-over-end rotator at 4 °C, washed six times with EBC or RIPA buffer, and resuspended in 2×Laemmli sample buffer. For p97, VCF1 or p47 pulldowns, antibodies (0.5 µg/sample) were coupled to agarose beads, incubated with recombinant proteins or cell lysates and washed with the indicated buffer. To assess p97-UFD1-NPL4 binding to ubiquitylated proteins in total cell extracts, U2OS cells were lysed in EBC buffer supplemented with protease and phosphatase inhibitors, sonicated and incubated on ice for 10 min. Lysates were cleared by centrifugation for 10 min at 16,100 × g. Cell lysate (40 µg) was added to recombinant proteins in EBC buffer, incubated overnight on the rotator with […] Fab-trap agarose (ChromoTek), and beads were washed six times.

[7] = system: p97-UFD1-NPL4 binding to ubiquitylated proteins; assay: FLAG IP: p97-UFD1-NPL4 binding to ubiquitylated proteins in U2OS cell extracts; format: biochemical, human; conditions: U2OS total cell extracts, EBC buffer
Protocol: as §6

**Q.** How did the “effect on Ub(G76V)-GFP level” value (Ub(G76V)-GFP, U2OS cells) turn out when 5’-AGCCAGCUCUUCCAUCUUA-3’ [p47 siRNA] was run?
**A.** Its value is “had no effect”.

**Q.** For 40S ribosomal protein S29 [RPS29], which “Relative protein level (log2) WT/noDox” value [1] is on record?
**A.** Its value is 2.611 log2.

**Q.** With 60S ribosomal protein L19 [RPL19] as the substance, how does the “Relative protein level (log2) WT/noDox” value [1] read?
**A.** Its value is 2.902 log2.

**Q.** AHNAK was tested. Which “Relative protein level (log2) WT/MUT” value [2] did it give?
**A.** The value was 2.811 log2.

**Q.** With FLNA as the substance, how does the “Relative protein level (log2) WT/MUT” value [2] read?
**A.** Its value is 3.526 log2.

**Q.** For G6PD, which “Relative protein level (log2) WT/MUT” value [2] is on record?
**A.** Its value is 4.291 log2.

**Q.** “H174: alanine mutant of residue H174 in full-length VCF1” was tested. Which “effect of alanine scan on p97 binding” value (p97) did it give?
**A.** Its value is “essential for VCF1 binding to p97”.

**Q.** For “Histone H3.1 [HIST1H3A;HIST2H3A;HIST3H3;H3F3A;H3F3B]”, which “Relative protein level (log2) WT/noDox” value [1] is on record?
**A.** The value was 5.652 log2.

**Q.** “L170: alanine mutant of residue L170 in full-length VCF1” was tested. Which “effect of alanine scan on p97 binding” value (p97) did it give?
**A.** Its value is “essential for VCF1 binding to p97”.

**Q.** “NLTSEELRKRREAYFEKQQQK [VBM, biotinylated VBM peptide of ATXN3 aa275-295]” was tested. Which “dependence of binding on p97 Y143” value [3] did it give?
**A.** The value was “required for binding to all three motifs”.

**Q.** How did the “dependence of binding on p97 Y143” value [3] turn out when “PTPDLEEKRAKLAEAAERRQKEAAS [VIM, biotinylated VIM peptide of SVIP aa14-39]” was run?
**A.** The value was “required for binding to all three motifs”.

**Q.** For Protein FAM104A, which “Relative protein level (log2) WT/noDox” value [1] is on record?
**A.** The value was 4.7326 log2.

**Q.** And the “Relative protein level (log2) WT/noDox” value [4]?
**A.** Its value is 3.522 log2.

**Q.** For “Transitional endoplasmic reticulum ATPase [VCP]”, which “Relative protein level (log2) WT/noDox” value [1] is on record?
**A.** Its value is 3.764 log2.

**Q.** And the “Relative protein level (log2) WT/noDox” value [4]?
**A.** The value was 4.192 log2.

**Q.** And the “Relative protein level (log2) WT/MUT” value [2]?
**A.** The value was 7.367 log2.

**Q.** “VCF1-p97 complex: complex of VCF1 and p97” was tested. Which “unfolding of poly-ubiquitylated mEos3.2 without UFD1-NPL4” value [5] did it give?
**A.** Its value is “unable to unfold a poly-ubiquitylated fluorescent model substrate (mEos3.2)”.

**Q.** Which results are given for “mutation of the VRM: VCF1 with mutated VRM (N167A by Fig. 5c reply)”?
**A.** effect on p97-UFD1-NPL4 binding to K48 ubiquitin chains [6]: abrogated; effect on p97-UFD1-NPL4 binding to ubiquitylated proteins [7]: abrogated

From publication PMC10950897, “VCF1 is a p97/VCP cofactor promoting recognition of ubiquitylated p97-UFD1-NPL4 substrates” (Nature Communications, 2024)
